± gives the expanded uncertainty stated by the source.
Experiments:
[1] = Molar enthalpy of transition or fusion; settings: DSC
[2] = DTA

For O=[N+]([O-])[O-].O=[N+]([O-])[O-].O=[N+]([O-])[O-].O=[N+]([O-])[O-].[K+].[K+].[Mg+2] [bis-potassium magnesium nitrate], the “Molar enthalpy of transition or fusion” value ([1]; Crystal 1) was 4.95 ± 0.151 kcal/mol, the “Molar enthalpy of transition or fusion” value ([1]; Crystal 2) was 0.648 ± 0.0478 kcal/mol and the Triple point temperature ([2]; Crystal 1) was 468.85 ± 0.5 K. For the same molecule, the Triple point temperature ([2]; Crystal 2) was 404.8 ± 0.5 K.
